Experiments:
GluN1/GluN2A receptors = biological target: T1, GluN1/GluN2A receptors (Rattus norvegicus, UniProt Q00959); test: Least squares fitting of kinetic model to macroscopic currents from excised outside‐out patches (1 mM or 3 μM glutamate for 1 s); format: cell-based; conditions: macroscopic fit
T1 construct: expressed in transfected cells; host or cells: HEK 293 cells
Procedure: (§1) Cells were transfected using FuGENE 6 (Roche Diagnostics, Basel, Switzerland) with cDNA encoding green fluorescent protein (GFP), wild type GluN1‐1a (GenBank accession numbers U11418 and U08261; hereafter GluN1), and GluN2A (D13211) and GluN2B (U11419) at a ratio of 5:1:1 (GFP:GluN1:GluN2); total cDNA was 0.2 mg ml^−1. All rat NMDA receptor subunit cDNAs were provided by Drs Heinemann (Salk Institute) and Nakanishi (Kyoto University). After transfection, the HEK cells were incubated for 12–24 h (timed to optimize observation of patches with a single active channel) in media supplemented with D,L‐2‐amino‐5‐phosphonovalerate (DL‐AP‐5) and 7‐chlorokynurenic acid (both at 200 μM) prior to patch clamp recordings.

[1] = test system: diheteromeric GluN1/GluN2BC2 receptors; set-up: method as in Hatton & Paoletti, 2005; Hansen et al. 2014; conditions: 3 μM ifenprodil; ref Hatton & Paoletti, 2005; Hansen et al. 2014; cited from earlier work
[2] = biological target: T2, GluN1/GluN2AC1/GluN2BC2 triheteromeric receptors (Rattus norvegicus, UniProt P35439+Q00959+Q00960, A876H/F846L/G856D/H848F/K857R/M851T/M860L/Q845K/V861L); set-up: method as in Hatton & Paoletti, 2005; Hansen et al. 2014; conditions: 3 μM ifenprodil; ref Hatton & Paoletti, 2005; Hansen et al. 2014; cited from earlier work
T2 construct: expressed in transfected cells; host or cells: HEK 293 cells

[3] = test system: GluN2AC1‐P552R/GluN2BC2‐P553R triheteromeric receptors; test: Whole cell current recordings, ifenprodil block of peak current in transfected HEK cells; format: cell-based, rat; conditions: 3 μM ifenprodil; n = 9
Procedure: as §1
(§2) All GluN2 cDNAs used for whole cell current recordings encoded a fusion protein containing the GluN2A C‐terminal domain fused to coiled‐coil C1 and C2 peptide tags followed by an endoplasmic reticulum (ER) retention signal fused in frame to the C‐terminal. This allowed control of the stoichiometry of GluN2 in surface receptors, as previously described (Hansen et al. 2014). The vector containing GluN1 also independently expressed GFP and was provided by Dr Kasper Hansen (University of Montana). […]

[4] = biological target: T3, GluN2AC1‐P552R/GluN2BC2 triheteromeric receptors (Rattus norvegicus, UniProt P35439+Q00959+Q00960, A876H/F846L/G856D/H848F/K857R/M851T/M860L/Q845K/V861L); test: as above; format: cell-based; conditions: 3 μM ifenprodil; n = 9
T3 construct: expressed in transfected cells; host or cells: HEK 293 cells
Procedure: as §1, §2

[5] = biological target: T2, GluN1/GluN2AC1/GluN2BC2 triheteromeric receptors; test: Whole cell current recordings, ifenprodil block of peak current response to glutamate plus glycine in transfected HEK cells; format: cell-based; conditions: 3 μM ifenprodil
Procedure: as §1, §2

[6] = model of Fig. A2 (opening only after all four pre‐gating steps)
[7] = model of Figs 5 and 6, saturating glycine (100 μM), pH 8.0

T1 sequence (Q00959 23-1464, other chains not shown): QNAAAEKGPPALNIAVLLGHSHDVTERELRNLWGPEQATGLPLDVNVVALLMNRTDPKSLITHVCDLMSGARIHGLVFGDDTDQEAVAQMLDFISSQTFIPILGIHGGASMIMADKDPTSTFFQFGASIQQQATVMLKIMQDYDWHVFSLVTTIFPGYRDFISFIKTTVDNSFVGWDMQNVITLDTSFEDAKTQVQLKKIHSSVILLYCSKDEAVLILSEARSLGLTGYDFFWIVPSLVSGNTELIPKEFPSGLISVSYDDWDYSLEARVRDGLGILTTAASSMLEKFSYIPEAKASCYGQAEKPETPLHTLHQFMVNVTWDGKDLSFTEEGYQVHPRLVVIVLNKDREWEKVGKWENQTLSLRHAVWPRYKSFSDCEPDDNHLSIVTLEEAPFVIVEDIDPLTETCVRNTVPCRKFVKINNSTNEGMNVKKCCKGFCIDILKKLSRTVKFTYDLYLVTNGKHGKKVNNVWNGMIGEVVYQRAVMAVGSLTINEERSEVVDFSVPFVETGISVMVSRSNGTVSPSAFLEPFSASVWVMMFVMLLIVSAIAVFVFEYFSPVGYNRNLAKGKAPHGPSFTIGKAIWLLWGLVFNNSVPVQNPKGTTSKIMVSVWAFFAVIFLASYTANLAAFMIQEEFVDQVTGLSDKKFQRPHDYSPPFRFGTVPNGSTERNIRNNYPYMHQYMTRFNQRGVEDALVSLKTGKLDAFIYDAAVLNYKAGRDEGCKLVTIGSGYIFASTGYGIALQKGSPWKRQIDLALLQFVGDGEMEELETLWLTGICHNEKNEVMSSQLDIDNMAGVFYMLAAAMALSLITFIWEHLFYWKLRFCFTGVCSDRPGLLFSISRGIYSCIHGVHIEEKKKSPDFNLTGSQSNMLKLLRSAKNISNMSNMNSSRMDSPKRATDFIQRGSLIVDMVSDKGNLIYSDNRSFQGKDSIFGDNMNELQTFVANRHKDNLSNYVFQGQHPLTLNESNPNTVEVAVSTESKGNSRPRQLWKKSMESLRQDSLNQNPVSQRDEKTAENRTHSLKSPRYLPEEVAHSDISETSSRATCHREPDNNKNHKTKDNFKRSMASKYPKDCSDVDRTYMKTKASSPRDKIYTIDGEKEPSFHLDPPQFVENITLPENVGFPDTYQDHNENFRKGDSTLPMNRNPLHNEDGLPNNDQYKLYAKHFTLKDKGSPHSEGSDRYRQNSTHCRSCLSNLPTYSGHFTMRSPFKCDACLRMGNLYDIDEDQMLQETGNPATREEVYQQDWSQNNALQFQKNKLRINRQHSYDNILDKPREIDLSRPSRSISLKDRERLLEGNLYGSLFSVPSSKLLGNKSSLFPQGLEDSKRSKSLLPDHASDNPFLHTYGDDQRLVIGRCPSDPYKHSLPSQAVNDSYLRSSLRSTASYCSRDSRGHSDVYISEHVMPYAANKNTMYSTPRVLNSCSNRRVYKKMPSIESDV
T2 sequence (Q00960+Q00959 fused with the stated changes, other chains not shown): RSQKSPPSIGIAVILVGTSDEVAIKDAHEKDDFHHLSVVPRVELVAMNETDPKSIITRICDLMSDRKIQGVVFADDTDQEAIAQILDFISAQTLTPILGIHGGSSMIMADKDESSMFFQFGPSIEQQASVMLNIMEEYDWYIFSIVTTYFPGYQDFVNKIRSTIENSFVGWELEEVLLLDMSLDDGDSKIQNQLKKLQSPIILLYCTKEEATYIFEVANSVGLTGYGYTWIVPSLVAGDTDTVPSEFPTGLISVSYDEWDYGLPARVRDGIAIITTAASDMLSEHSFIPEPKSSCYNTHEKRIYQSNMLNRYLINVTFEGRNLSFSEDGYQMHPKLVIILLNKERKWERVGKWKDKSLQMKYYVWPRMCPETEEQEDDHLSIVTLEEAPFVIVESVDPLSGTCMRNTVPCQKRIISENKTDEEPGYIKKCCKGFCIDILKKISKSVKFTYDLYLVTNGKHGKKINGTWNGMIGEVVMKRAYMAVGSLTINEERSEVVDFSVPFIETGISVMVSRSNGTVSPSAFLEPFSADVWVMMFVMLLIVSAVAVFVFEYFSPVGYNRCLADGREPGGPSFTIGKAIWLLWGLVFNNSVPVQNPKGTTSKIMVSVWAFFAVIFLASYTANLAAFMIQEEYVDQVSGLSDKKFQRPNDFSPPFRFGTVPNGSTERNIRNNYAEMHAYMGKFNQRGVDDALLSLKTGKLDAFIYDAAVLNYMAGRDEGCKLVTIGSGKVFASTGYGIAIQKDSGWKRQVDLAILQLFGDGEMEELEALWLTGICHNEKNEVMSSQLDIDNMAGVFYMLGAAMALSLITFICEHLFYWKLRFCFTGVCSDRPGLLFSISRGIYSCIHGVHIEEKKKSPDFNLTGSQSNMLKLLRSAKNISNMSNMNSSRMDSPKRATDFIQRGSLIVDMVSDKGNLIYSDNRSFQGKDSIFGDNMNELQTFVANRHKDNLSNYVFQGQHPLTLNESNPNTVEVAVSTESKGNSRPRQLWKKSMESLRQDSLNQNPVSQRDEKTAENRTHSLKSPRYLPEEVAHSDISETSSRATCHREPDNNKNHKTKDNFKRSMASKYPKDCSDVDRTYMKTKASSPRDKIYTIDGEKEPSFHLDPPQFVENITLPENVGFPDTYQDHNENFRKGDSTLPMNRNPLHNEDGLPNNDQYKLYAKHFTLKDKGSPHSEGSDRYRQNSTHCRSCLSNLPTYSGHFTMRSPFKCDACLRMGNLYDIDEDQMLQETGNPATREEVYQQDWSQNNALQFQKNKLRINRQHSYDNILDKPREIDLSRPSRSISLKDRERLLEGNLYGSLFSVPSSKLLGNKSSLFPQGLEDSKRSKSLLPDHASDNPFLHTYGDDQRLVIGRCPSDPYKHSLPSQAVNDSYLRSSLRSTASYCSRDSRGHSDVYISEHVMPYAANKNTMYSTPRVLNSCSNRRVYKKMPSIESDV
T3 sequence (Q00960+Q00959 fused with the stated changes, other chains not shown): as above

SMILES	glutamate association rate k +A (GluN1/GluN2A receptors; [6]) [M⁻¹ s⁻¹]	glutamate dissociation rate k −A (GluN1/GluN2A receptors; [6]) [s⁻¹]	glutamate dissociation rate k −A (GluN1/GluN2A receptors; [7]) [s⁻¹]	microscopic glutamate association rate k +A (GluN1/GluN2A receptors; [7]) [M⁻¹ s⁻¹]	expected reduction of peak current [1] [%]	expected reduction of triheteromeric peak current [2] [%]	reduction of peak current [3] [%]	reduction of peak current [4] [%]	block of the current amplitude [5] [%]
N[C@@H](CCC(=O)O)C(=O)O [glutamate]	1.3e+07	483	65	6.7e+06					
CC(C(O)c1ccc(O)cc1)N1CCC(Cc2ccccc2)CC1 (stereo not drawn) [ifenprodil]					~90	~30	43 ± 6.1	58 ± 5.5	38

Reference: PMC6117563, “A structurally derived model of subunit‐dependent NMDA receptor function” (The Journal of Physiology, 2018)
